Experimental data: the Biogen ADME set (Fang et al. 2023)
Values after ≈ are worked out from the molar mass of the structure shown.

Details: for aqueous solubility: pH 6.8

SMILES	MDR1-MDCK efflux ratio	intrinsic clearance, human liver microsomes [mL/min/kg]	intrinsic clearance, rat liver microsomes [mL/min/kg]	aqueous solubility [µg/mL]	fraction unbound, human plasma	fraction unbound, rat plasma
O=C1CNC(=O)N1CCCN1CCc2sccc2C1	1.52	≤ 4.74	28.6	51.2 (≈ 183 µM)		
CON(C)C(=O)c1cc(C)ccc1NS(C)(=O)=O	1.52	≤ 4.74	≤ 10.7	33.3 (≈ 122 µM)		
O=C(O)C1CN(Cc2ccc(OCc3ccc(Cl)c(Cl)c3)cc2)C1	4.1	≤ 4.74	≤ 10.7			
O=C1Nc2ccc(Cl)cc2[C@@](C#CC2CC2)(C(F)(F)F)O1				15.3 (≈ 48.4 µM)		
CN(CCc1ccccn1)C(=O)Nc1nncs1	1.63	≤ 4.74	≤ 10.7	45.6 (≈ 173 µM)		
CCNC(=O)c1ccc(-c2cc(C)cc(OC)c2OC)nc1	0.998	≤ 4.74	93.1	34.8 (≈ 116 µM)		
Cc1cccc(NCCc2cc(F)cc3c2OCOC3)n1	0.374	397	5180			
Cc1nn(C(F)F)c(C)c1CC(=O)NCCNC(C)(C)C	20.6	≤ 4.74	253			
Cc1ccc(NC(=O)CN(C)C2CCCCC2)cc1S(=O)(=O)N(C)C	1.45	432	3870			
CCn1nc(Cc2ccc(OC)cc2)nc1Cc1sc(C)nc1C	2.11	21.4	233	28.7 (≈ 83.9 µM)		
O=C(Nc1ccc2c3c(cccc13)CC2)c1ccnc(-n2cncn2)c1	0.25	124	164	10.7 (≈ 31.4 µM)		
COc1ccc(Br)c(-c2nnc(N)o2)c1	0.707	16.4	59.2	24.8 (≈ 91.7 µM)		
Cc1c(C(=O)Nc2ccc(CO)cc2)nnn1Cc1ccc(Cl)c(Cl)c1	0.564	5.12	50.8			
COCC(=O)N1CCN2C(=O)NC[C@H]2C1				38.4 (≈ 180 µM)		
CN1CCC(NC(=O)COc2ccc(C#N)cc2)CC1	2.44	≤ 4.74	≤ 10.7	35.2 (≈ 129 µM)		
CN(Cc1ccc(Cl)cc1)C(=O)c1ccc(-n2ccnc2)nc1	1.08	≤ 4.74	46.4	65.1 (≈ 199 µM)		
COc1cc2c(cc1OC)-c1cc3ccc(OC)c(OC)c3c[n+]1CC2	22.5	≤ 4.74	23.4	54.1		

SMILES	MDR1-MDCK efflux ratio	intrinsic clearance, human liver microsomes [mL/min/kg]	intrinsic clearance, rat liver microsomes [mL/min/kg]	aqueous solubility [µg/mL]	fraction unbound, human plasma	fraction unbound, rat plasma
O/N=C1/CCCc2c1cnc1ncnn21	1.67	≤ 4.74	≤ 10.7			
Cc1nnc(NC(=O)c2nn(-c3ccc(F)cc3)c3c2CCCC3)s1		42	227	2.9 (≈ 8.11 µM)		
CCCc1cnc(C)nc1N(C)CCC(C)(C)O		8.14	155			
COc1cccc(-c2nc(-c3cccnc3)n[nH]2)c1	0.698	≤ 4.74	46.5	22.7 (≈ 89.8 µM)		
COc1c(C)cccc1CN1CCC(O)(c2ccc(F)cc2)CC1	0.581	27.8	1280	39.7 (≈ 121 µM)		
Cc1c(C(=O)Nc2ccc(N3CCC(N4CCOCC4)CC3)c(C#N)c2)cnn1-c1ccc(Cl)cc1	11.5	80.7	294			
COc1cc2c(cc1OC)CN(C(=O)C1CCCN(C(=O)OC(C)(C)C)C1)CC2 (configuration not stated)	1.79	106	643	61.9 (≈ 153 µM)		
CCNC(=O)C1CN(c2nc(C3CC3)nc3c2CCC3)C1	23.5	≤ 4.74	19.9	45 (≈ 157 µM)		
CCOC(=O)c1ccc(OCC(=O)c2c[nH]c3ccccc23)cc1	0.456			0.69 (≈ 2.13 µM)		
COc1ccc(OC[C@@H]2c3cc(OC)c(OC)cc3CCN2C(=O)c2cccc(Cl)c2)cc1	1.25				0.00764	0.0171
CN(C(=O)C1CCN(c2ncccn2)CC1)C1CCCCCCC1	0.85	519	3890	49.4 (≈ 150 µM)		
Cc1ccc(-c2nc3ccccc3[nH]2)cc1NS(=O)(=O)c1ccc(Cl)cc1	4.88			0.28 (≈ 0.704 µM)		
CONC(=O)c1cn(-c2ccc(Br)cc2)cn1		≤ 4.74	463	63.6 (≈ 215 µM)		
COc1ccc(-c2ccc(CN(CCN(C)C)Cc3ccncc3)cc2)cc1	2.06	31.9	465	55.8 (≈ 149 µM)		
Clc1ccc2c(Oc3cccnc3)ncnc2c1	0.654	16.7	47	39.7 (≈ 154 µM)		
O=C(NC1CCCC1)N1CCN(c2nccn3nc4c(c23)CCCC4)CC1	2	118	464	17.1 (≈ 46.4 µM)		
Cc1nnc(NCc2cccnc2)c2ccccc12	6.54	5.21	51.4	29.9 (≈ 120 µM)		

The next lines start with the values.

MDR1-MDCK efflux ratio	intrinsic clearance, human liver microsomes [mL/min/kg]	intrinsic clearance, rat liver microsomes [mL/min/kg]	aqueous solubility [µg/mL]	fraction unbound, human plasma	fraction unbound, rat plasma	SMILES
15.7	18	214				Cn1cnc2ncn(Cc3nc(CCc4ccc(Cl)cc4)no3)c(=O)c21
1.26	≤ 4.74	20.3	17.1 (≈ 64.9 µM)			Cc1cc(-c2nnc3ccc4ccccc4n23)n(C)n1
2.1	107	1190				CCCNC(=O)CSc1nc2cc(C)ccc2[nH]1
0.641	115	398				CCn1nccc1-c1cc(C)nc(N2CCCC2)n1
1.25	51	855	55.4 (≈ 185 µM)			CCc1noc(CN2CCCN(C(C)=O)c3ccccc32)n1
0.841	11.5	48	36.8 (≈ 127 µM)			COc1ccc(-c2nc(CN3CCC[C@H](O)C3)no2)cc1
0.719	26.9	142				C#CCNC(=O)Cc1coc(-c2ccccc2)n1
22.7	79.9	449	54.2 (≈ 182 µM)			Cc1nn(C)c(C)c1CCC(=O)N1CCCc2ncccc21
0.771	≤ 4.74	≤ 10.7	36 (≈ 147 µM)			Cc1cnn(Cc2nc(Cn3cccn3)no2)c1
1.15	23.7	862				O=C1NC2(CCCCC2)C(=O)N1Cc1csc(-c2ccccc2)n1
16	≤ 4.74	≤ 10.7	43.4 (≈ 148 µM)			c1ccc2c(N3CCn4c(nnc4C4CC4)C3)ncnc2c1
0.74	11	39.2	77.2 (≈ 287 µM)			O=C(Nc1ccccc1-n1ccnc1)c1cccs1
0.896	≤ 4.74	176	49.2 (≈ 145 µM)			O=C(CCCc1ccc(F)cc1)N1CCN(c2ccccc2)C(=O)C1
	567	3770				O=C(CCc1cnn(-c2ccccc2)c1)N1CCC(n2c(=O)[nH]c3ccccc32)CC1
0.849	24	956				Cc1ccc2occ(CN3C[C@H]4CCCN4C[C@H]3C)c(=O)c2c1
	47.2	1150				Nc1nc(N2CCN(CC3CCCC3)C(=O)C2)cc(-n2cccn2)n1
0.82	≤ 4.74	112	53 (≈ 173 µM)			CCOC(=O)N1CCN(C(=O)c2ccc3c(c2)OCO3)CC1
1.34	≤ 4.74	54.8	39.6 (≈ 146 µM)			O=C(NCCc1cnn(-c2ccccc2)c1)N1CCC1
1.13	826	4200	35 (≈ 111 µM)			CC(C)c1cccc(CN2C(=O)N(C)C3(CCCCC3)C2=O)n1
	240	3170	33.9 (≈ 88 µM)			O=C(C1CCCN(S(=O)(=O)c2ccccc2)C1)N1CCc2ccccc2C1 (configuration not stated)
	≤ 4.74	342				CCCN(C(=O)c1ccccc1N)C(C)C
6.72	≤ 4.74	32.3	61.6 (≈ 174 µM)			Cc1ccc(N2CCN(C(=O)c3c(C)nc4sccn34)CC2=O)cc1
40.4	13.7	131				CCc1nnc(Nc2cc(C)nc(C3CN(C(=O)C(C)C)CCO3)c2)s1 (configuration not stated)
